This is an account of results in PubChem BioAssay (NCI).

Some test systems named below: CCRF-CEM leukemia; COLO 205 colon; DU-145 prostate; MOLT-4 leukemia; NCI-H23 lung; NCI-H460 lung; NCI/ADR-RES ovarian; SF-268 CNS; SNB-19 CNS; SW-620 colon.
Holding throughout (test): NCI anticancer screen, dose series, 48 h

“And” between values parts separate entries of the source, which are not always exact repeats. Equal entries are not always repeated.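 How tested: cells in 96-well plates exposed to compound for 48 hours at five concentrations. GI50 = concentration required for 50% inhibition of growth. TGI is the concentration that stops growth completely.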 Some results are limits rather than exact numbers.

Turning to `COc1ccc(CC(NC(=O)[C@H](C)NC(=O)CN2CCOCC2)C(=O)N[C@@H](Cc2ccccc2)C(=O)[C@@]2(C)CO2)cc1` (stereo not given in full), the GI50 is 0.0859 µM with CCRF-CEM leukemia; 0.308 µM in the assay with COLO 205 colon; 0.437 µM with DU-145 prostate; 0.0572 µM in the assay with MOLT-4 leukemia; 0.196 µM in the assay with NCI-H23 lung; 0.422 µM with NCI-H460 lung. For the same compound, the GI50 in the assay on NCI/ADR-RES ovarian was 19.8 µM; in the assay with SF-268 CNS, 0.245 µM; in the assay on SNB-19 CNS, 0.651 µM; with SW-620 colon, 0.216 µM. The TGI in the assay on CCRF-CEM leukemia was over 100 µM; in the assay on COLO 205 colon, 0.933 µM; in the assay on DU-145 prostate, 5.71 µM; in the assay with NCI-H23 lung it was 0.695 µM; in the assay on NCI-H460 lung, 1.96 µM; with NCI/ADR-RES ovarian, over 100 µM. In addition, the TGI was 0.708 µM in the assay with SF-268 CNS, over 100 µM in the assay with SNB-19 CNS and 0.734 µM with SW-620 colon.
Take `COC(=O)OCc1ccc2c(c1)C(=O)c1c-2n(CCCBr)c(=O)c2cc([N+](=O)[O-])ccc12`: the GI50 with CCRF-CEM leukemia is 45.9 µM; in the assay with COLO 205 colon, over 100 µM; in the assay with DU-145 prostate, over 100 µM; in the assay with MOLT-4 leukemia it was 31.6 µM; in the assay with NCI-H460 lung, over 100 µM; in the assay on NCI/ADR-RES ovarian, over 100 µM. For the same compound, the results for the GI50 in the assay on SF-268 CNS, in the assay with SNB-19 CNS and in the assay with SW-620 colon were over 100 µM, 79 µM and over 100 µM, respectively. The TGI with CCRF-CEM leukemia, in the assay with COLO 205 colon, in the assay on DU-145 prostate, with MOLT-4 leukemia, in the assay with NCI-H460 lung and in the assay with NCI/ADR-RES ovarian was over 100 µM in each case. Besides, the TGI in the assay on SF-268 CNS, in the assay with SNB-19 CNS and in the assay with SW-620 colon was over 100 µM in each case.
With `COc1ccc(/C=C/C(=O)c2cc3c(N)c(C(=O)Nc4ccccc4C)sc3nc2C)cc1`, the GI50 is 0.475 µM in the assay on CCRF-CEM leukemia; 0.431 µM with DU-145 prostate; 0.747 µM with MOLT-4 leukemia; 0.969 µM in the assay with NCI-H23 lung; 1.53 µM in the assay with NCI-H460 lung; 0.228 µM with NCI/ADR-RES ovarian. Besides, the GI50 with SF-268 CNS is 1.24 µM; in the assay with SNB-19 CNS it was 1.15 µM; with SW-620 colon it was 0.83 µM. Further, the TGI in the assay on CCRF-CEM leukemia is over 50 µM; with DU-145 prostate, over 23.4 µM; in the assay with MOLT-4 leukemia it was over 50 µM; in the assay on NCI-H23 lung, over 50 µM; in the assay with NCI-H460 lung, over 16.6 µM; with NCI/ADR-RES ovarian, 2 µM. Moreover, the TGI in the assay with SF-268 CNS, in the assay with SNB-19 CNS and in the assay with SW-620 colon was over 50 µM in each case.
Take `CN1CCN(c2ccc(NC3=C(Cl)C(=O)c4ncccc4C3=O)cc2C#N)CC1`: the GI50 in the assay with COLO 205 colon is 2.06 µM; in the assay on DU-145 prostate, 2.99 µM; in the assay on MOLT-4 leukemia it was 1.04 µM; with NCI-H23 lung it was 2.15 µM; in the assay with NCI-H460 lung, 13 µM; with NCI/ADR-RES ovarian, 4.56 µM. Moreover, the values for the GI50 in the assay on SF-268 CNS, in the assay with SNB-19 CNS and with SW-620 colon were 2.09 µM, 11 µM and 1.49 µM, respectively. Also, the TGI amounted to 4.51 µM in the assay with COLO 205 colon; 15.5 µM in the assay on DU-145 prostate; 5.31 µM in the assay on MOLT-4 leukemia; 6.22 µM in the assay on NCI-H23 lung; 30.9 µM in the assay with NCI-H460 lung; 24.3 µM with NCI/ADR-RES ovarian. The TGI in the assay with SF-268 CNS stood at 5.27 µM; in the assay on SNB-19 CNS it was 23 µM; in the assay on SW-620 colon, 3.62 µM.
Turning to `C/C1=C\C/C=C(\C)[C@H]2CC(CC/C(C)=C/CC1)[C@](C)(C=O)O2`, the GI50 was over 100 µM in the assay with COLO 205 colon; 79.8 µM with DU-145 prostate; 21 µM with MOLT-4 leukemia; over 100 µM with NCI-H23 lung; 85.1 µM with NCI-H460 lung; over 100 µM with NCI/ADR-RES ovarian. Also, the GI50 with SF-268 CNS is over 100 µM; in the assay on SNB-19 CNS, over 100 µM; in the assay with SW-620 colon, 51.1 µM. The TGI in the assay with COLO 205 colon, in the assay with DU-145 prostate, with MOLT-4 leukemia, in the assay on NCI-H23 lung, in the assay with NCI-H460 lung and in the assay on NCI/ADR-RES ovarian was over 100 µM throughout. The TGI with SF-268 CNS, with SNB-19 CNS and in the assay on SW-620 colon was over 100 µM each time.
With `CC1SC(c2c(Cl)cccc2Cl)N(NC(=O)C(O)c2ccccc2)C1=O` (stereo not given), the GI50 in the assay with CCRF-CEM leukemia is 74.6 µM; with COLO 205 colon it was over 100 µM; in the assay with DU-145 prostate, over 100 µM; in the assay on MOLT-4 leukemia it was over 100 µM; in the assay on NCI-H460 lung it was over 100 µM; in the assay on NCI/ADR-RES ovarian, 45.4 µM. Moreover, the GI50 in the assay on SF-268 CNS, in the assay with SNB-19 CNS and in the assay on SW-620 colon was over 100 µM in each case. Moreover, the TGI in the assay on CCRF-CEM leukemia, with COLO 205 colon, with DU-145 prostate, with MOLT-4 leukemia, with NCI-H460 lung and in the assay on NCI/ADR-RES ovarian was over 100 µM each time. Further, the TGI in the assay on SF-268 CNS, in the assay on SNB-19 CNS and with SW-620 colon was over 100 µM each time.
Consider `CO[C@@]12C[C@H]3[C@@H]([C@@H](O)[C@@H](OC(=O)/C=C/c4ccccc4)[C@@]4(O)C(C)(C)CCC[C@]34C)[C@@H](C)C1=CC(=O)O2`, for which the GI50 with COLO 205 colon was 5.42 µM; with DU-145 prostate, 13.4 µM; in the assay with MOLT-4 leukemia, over 100 µM; with NCI-H23 lung, 13.5 µM; in the assay on NCI-H460 lung, 12.4 µM; with NCI/ADR-RES ovarian, 11 µM. Besides, the results for the GI50 in the assay with SF-268 CNS, with SNB-19 CNS and in the assay on SW-620 colon were 6.78 µM, 16.1 µM and 12.2 µM, respectively. Also, the TGI with COLO 205 colon is 54.2 µM; with DU-145 prostate, 78.8 µM; with MOLT-4 leukemia, over 100 µM; in the assay with NCI-H23 lung it was 42.2 µM; with NCI-H460 lung it was 82.9 µM; with NCI/ADR-RES ovarian, over 100 µM. Also, the TGI in the assay on SF-268 CNS is 72.8 µM; in the assay with SNB-19 CNS, over 100 µM; in the assay on SW-620 colon, 31.5 µM.
Regarding `Cc1cc(C)cc(Nc2ccc([N+](=O)[O-])c(NCCN3CCOCC3)n2)c1`, the GI50 with CCRF-CEM leukemia is 0.00392 µM and 0.0331 µM; with COLO 205 colon, 0.0023 µM; with NCI-H23 lung, 0.00739 µM and 0.0275 µM; with NCI/ADR-RES ovarian it was 0.000646 µM; with SW-620 colon, 0.00176 µM and 0.0147 µM. In addition, the TGI in the assay with CCRF-CEM leukemia was over 100 µM; with COLO 205 colon it was 0.00795 µM; in the assay with DU-145 prostate it was over 100 µM; with MOLT-4 leukemia, over 100 µM; in the assay with NCI-H23 lung it was over 100 µM; with NCI-H460 lung it was over 100 µM. For the same compound, the TGI in the assay on SF-268 CNS was 85.2 µM; in the assay with SW-620 colon it was over 100 µM.
